Measured values from patent US20160120863A1, “SLC2A TRANSPORTER INHIBITORS” (IOMET PHARMA LTD., priority 2013, published 2016).

Legend:
Type in all cases: cell-based
human GLUT1 = biological target: T1, human GLUT1 (Homo sapiens, UniProt P11166); assay: [3H]-deoxy-D-glucose uptake assay, GLUT1; settings: [3H]-deoxy-D-glucose uptake in HEK293 cells stably expressing human GLUT1
T1 construct: expressed in transfected cells
T1 sequence (P11166 1-492): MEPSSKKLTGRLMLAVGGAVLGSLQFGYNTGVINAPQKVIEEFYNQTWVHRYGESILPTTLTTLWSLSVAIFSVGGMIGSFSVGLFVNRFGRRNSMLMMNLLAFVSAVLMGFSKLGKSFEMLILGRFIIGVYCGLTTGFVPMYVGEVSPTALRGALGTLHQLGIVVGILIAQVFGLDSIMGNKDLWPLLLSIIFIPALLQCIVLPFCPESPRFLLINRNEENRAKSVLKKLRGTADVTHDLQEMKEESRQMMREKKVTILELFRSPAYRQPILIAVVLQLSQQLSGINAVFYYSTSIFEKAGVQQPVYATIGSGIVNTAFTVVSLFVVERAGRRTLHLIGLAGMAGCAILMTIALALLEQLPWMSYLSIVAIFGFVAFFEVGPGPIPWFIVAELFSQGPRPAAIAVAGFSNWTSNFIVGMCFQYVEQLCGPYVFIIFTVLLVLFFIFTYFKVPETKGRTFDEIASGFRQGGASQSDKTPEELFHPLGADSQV
Procedure, shortened: (§1)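 HEK293 cells stably overexpressing human GLUT1 or GLUT2, seeded at 60,000 per well, treated with compounds in glucose-free uptake buffer for 30 min at 37 °C. [3H]-deoxy-D-glucose uptake quantified by scintillation counting after ice-cold PBS washes; IC50 determined.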

human GLUT2 = biological target: T2, human GLUT2 (Homo sapiens, UniProt P11168); assay: [3H]-deoxy-D-glucose uptake assay, GLUT2; settings: [3H]-deoxy-D-glucose uptake in HEK293 cells stably expressing human GLUT2
T2 construct: expressed in transfected cells
T2 sequence (P11168 1-524): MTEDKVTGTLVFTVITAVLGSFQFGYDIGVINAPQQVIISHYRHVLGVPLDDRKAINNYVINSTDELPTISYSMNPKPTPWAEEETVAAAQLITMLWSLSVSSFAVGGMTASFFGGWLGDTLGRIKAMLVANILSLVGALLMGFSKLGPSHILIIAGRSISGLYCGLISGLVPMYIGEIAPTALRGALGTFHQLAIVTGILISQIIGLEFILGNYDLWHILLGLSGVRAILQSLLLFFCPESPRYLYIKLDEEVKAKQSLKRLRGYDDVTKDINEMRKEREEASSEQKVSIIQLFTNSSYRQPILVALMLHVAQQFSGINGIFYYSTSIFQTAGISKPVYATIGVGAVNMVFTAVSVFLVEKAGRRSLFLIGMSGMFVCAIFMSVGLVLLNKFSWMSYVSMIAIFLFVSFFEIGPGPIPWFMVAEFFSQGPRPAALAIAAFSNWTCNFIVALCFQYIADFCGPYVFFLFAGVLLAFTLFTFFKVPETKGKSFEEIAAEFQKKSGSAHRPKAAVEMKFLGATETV
Procedure, shortened: as §1

human GLUT3 = biological target: T3, human GLUT3 (Homo sapiens, UniProt P11169); assay: [3H]-deoxy-D-glucose uptake assay, GLUT3; settings: [3H]-deoxy-D-glucose uptake in HEK293 cells stably expressing human GLUT3
T3 construct: expressed in transfected cells
T3 sequence (P11169 1-496): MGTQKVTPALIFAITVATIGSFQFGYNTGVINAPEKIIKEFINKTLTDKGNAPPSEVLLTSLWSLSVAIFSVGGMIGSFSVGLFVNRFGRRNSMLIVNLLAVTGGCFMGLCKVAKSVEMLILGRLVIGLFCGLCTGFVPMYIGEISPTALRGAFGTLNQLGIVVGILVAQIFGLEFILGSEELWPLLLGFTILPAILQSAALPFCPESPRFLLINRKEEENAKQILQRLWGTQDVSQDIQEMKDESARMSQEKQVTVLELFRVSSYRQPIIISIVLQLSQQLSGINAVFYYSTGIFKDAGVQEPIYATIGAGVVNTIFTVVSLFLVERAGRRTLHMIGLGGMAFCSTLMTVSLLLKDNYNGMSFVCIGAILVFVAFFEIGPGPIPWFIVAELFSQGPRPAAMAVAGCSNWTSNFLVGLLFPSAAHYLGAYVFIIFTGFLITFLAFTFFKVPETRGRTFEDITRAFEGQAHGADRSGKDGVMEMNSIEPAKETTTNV
Method: (§2) HEK293 cells were engineered to stably express either human GLUT1, GLUT2, GLUt3 or GLUT4 by transfection with the pReceiver-Lv105 plasmid, containing either hGLUT1, hGLUT2, hGLUT3, or hGLUT4 gene constructs with lipofectamine 2000, hGLUT1- hGLUT2- hGLUT3- or hGLUT4-overexpressing polyclonal populations were isolated under purinomycin selective pressure (1 μg/ml) and maintained in Dulbecco's modified Eagle's medium supplemented with 1 μg/ml purinomycin+10% foetal bovine serum (FBS).
(§3) 60,000 cells per well were seeded overnight into poly-D-lysine coasted 96-well plates. Following media removal, cells were washed twice in warm glucose-free uptake buffer (25 mM HEPES/KOH pH 7.4, 125 mM NaCl, 4.8 mM KCl, 1.2 mM MgSO4, 1.2 mM CaCl2, 1.2 mM KH2PO4). 90 μl of test compounds were added in glucose-free uptake buffer and cells were incubated at 37° C. for 30 min. 10 μl of [3H]-deoxy-D-glucose (0.25 μCi, 125 μM final assay concentration) was then added per well in glucose-free uptake buffer and uptake was allowed to proceed at 37° C. for 30 min.
(§4) Cells were then washed twice with ice-cold PBS and 100 μl of Microscint-20 was added per well. Glucose uptake was quantified with a scintillation counter. The half maximal inhibitory concentration (IC50) (a measure of the effectiveness of the test compound in inhibiting glucose uptake) was determined.

human GLUT4 = biological target: T4, human GLUT4 (Homo sapiens, UniProt P14672); assay: [3H]-deoxy-D-glucose uptake assay, GLUT4; settings: [3H]-deoxy-D-glucose uptake in HEK293 cells stably expressing human GLUT4
T4 construct: expressed in transfected cells
T4 sequence (P14672 1-509): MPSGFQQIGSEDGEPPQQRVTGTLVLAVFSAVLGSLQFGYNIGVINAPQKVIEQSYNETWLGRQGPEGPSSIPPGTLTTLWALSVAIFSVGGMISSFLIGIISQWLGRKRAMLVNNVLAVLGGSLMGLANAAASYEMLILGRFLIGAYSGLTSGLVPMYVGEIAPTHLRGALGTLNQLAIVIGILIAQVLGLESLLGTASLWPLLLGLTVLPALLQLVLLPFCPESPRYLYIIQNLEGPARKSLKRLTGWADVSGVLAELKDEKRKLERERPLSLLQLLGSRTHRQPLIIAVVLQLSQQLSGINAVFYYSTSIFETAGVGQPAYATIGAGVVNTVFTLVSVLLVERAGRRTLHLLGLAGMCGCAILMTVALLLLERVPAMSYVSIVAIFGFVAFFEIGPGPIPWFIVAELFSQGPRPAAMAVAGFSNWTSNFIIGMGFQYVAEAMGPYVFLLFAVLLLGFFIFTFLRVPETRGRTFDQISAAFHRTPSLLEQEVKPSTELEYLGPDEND
Method: as §2, §3, §4

| SMILES | GLUT1 pIC50 (human GLUT1) | GLUT2 pIC50 (human GLUT2) | GLUT3 pIC50 (human GLUT3) | GLUT4 pIC50 (human GLUT4) |
| --- | --- | --- | --- | --- |
| O=C(c1cscn1)N1CCN(Cc2c(-c3ccc(Cl)cc3Cl)nc3cnc(C4CC4)cn23)CC1 [Compound 306] | +++ (pIC50 ≧ 6.00) | +++ (pIC50 ≧ 6.00) | +++ (pIC50 ≧ 6.00) | +++ (pIC50 ≧ 6.00) |
| CN(c1ccc2nc(-c3ccc(Cl)cc3)c(CN3CCN(C(=O)C4COC4)CC3)n2c1)S(C)(=O)=O [Compound 309] | +++ (pIC50 ≧ 6.00) | ++ (pIC50 5.00-5.99) | +++ (pIC50 ≧ 6.00) | +++ (pIC50 ≧ 6.00) |
| CN(c1ccc2nc(-c3ccc(Cl)cc3)c(CN3CCN(C(=O)c4ccnnc4)CC3)n2c1)S(C)(=O)=O [Compound 310] | +++ (pIC50 ≧ 6.00) | ++ (pIC50 5.00-5.99) | +++ (pIC50 ≧ 6.00) | +++ (pIC50 ≧ 6.00) |
| COCC(=O)N1CCN(Cc2c(-c3ccc(Cl)cc3Cl)nc3cnc(C4CC4)cn23)CC1 [Compound 311] | +++ (pIC50 ≧ 6.00) | +++ (pIC50 ≧ 6.00) | +++ (pIC50 ≧ 6.00) | +++ (pIC50 ≧ 6.00) |
| CC(=O)N1CCN(Cc2c(-c3ccc(Cl)cc3Cl)nc3ccc(NS(C)(=O)=O)cn23)CC1 [Compound 313] | +++ (pIC50 ≧ 6.00) | ++ (pIC50 5.00-5.99) | +++ (pIC50 ≧ 6.00) | +++ (pIC50 ≧ 6.00) |
| CCS(=O)(=O)Nc1ccc2nc(-c3ccc(Cl)cc3)c(CN3CCN(C(C)=O)CC3)n2c1 [Compound 314] | +++ (pIC50 ≧ 6.00) | ++ (pIC50 5.00-5.99) | +++ (pIC50 ≧ 6.00) | +++ (pIC50 ≧ 6.00) |
| CCS(=O)(=O)N(C)c1ccc2nc(-c3ccc(Cl)cc3)c(CN3CCN(C(C)=O)CC3)n2c1 [Compound 316] | +++ (pIC50 ≧ 6.00) | ++ (pIC50 5.00-5.99) | +++ (pIC50 ≧ 6.00) | +++ (pIC50 ≧ 6.00) |
| O=C(CO)N1CCN(Cc2c(-c3ccc(Cl)cc3Cl)nc3cnc(C4CC4)cn23)CC1 [Compound 321] | +++ (pIC50 ≧ 6.00) | +++ (pIC50 ≧ 6.00) | +++ (pIC50 ≧ 6.00) | +++ (pIC50 ≧ 6.00) |
| CC(C)(O)C(=O)N1CCN(Cc2c(-c3ccc(Cl)cc3Cl)nc3cnc(C4CC4)cn23)CC1 [Compound 322] | +++ (pIC50 ≧ 6.00) | +++ (pIC50 ≧ 6.00) | +++ (pIC50 ≧ 6.00) | +++ (pIC50 ≧ 6.00) |
| CC(=O)N1CCN(Cc2c(-c3ccc(Cl)cc3)nc3ccc(N4CCCCS4(=O)=O)cn23)CC1 [Compound 326] | +++ (pIC50 ≧ 6.00) | +++ (pIC50 ≧ 6.00) | +++ (pIC50 ≧ 6.00) | +++ (pIC50 ≧ 6.00) |
| CC(=O)N1CCN(Cc2c(-c3ccc(Cl)cc3Cl)nc3ccc(N(C)S(C)(=O)=O)cn23)CC1 [Compound 333] | +++ (pIC50 ≧ 6.00) | +++ (pIC50 ≧ 6.00) | +++ (pIC50 ≧ 6.00) | +++ (pIC50 ≧ 6.00) |
| CS(=O)(=O)Nc1ccc2nc(-c3ccc(Cl)cc3Cl)c(CN3CCN(C(=O)C4COC4)CC3)n2c1 [Compound 334] | +++ (pIC50 ≧ 6.00) | ++ (pIC50 5.00-5.99) | +++ (pIC50 ≧ 6.00) | +++ (pIC50 ≧ 6.00) |
| CN(c1ccc2nc(-c3ccc(Cl)cc3Cl)c(CN3CCN(C(=O)C4COC4)CC3)n2c1)S(C)(=O)=O [Compound 335] | +++ (pIC50 ≧ 6.00) | +++ (pIC50 ≧ 6.00) | +++ (pIC50 ≧ 6.00) | +++ (pIC50 ≧ 6.00) |
| COCC(=O)N1CCN(Cc2c(-c3ccc(Cl)cc3Cl)nc3ccc(NS(C)(=O)=O)cn23)CC1 [Compound 336] | +++ (pIC50 ≧ 6.00) | ++ (pIC50 5.00-5.99) | +++ (pIC50 ≧ 6.00) | +++ (pIC50 ≧ 6.00) |
| CC(=O)N1CCN(Cc2c(-c3ccc(Cl)cc3Cl)nc3ccc(N4CCCS4(=O)=O)cn23)CC1 [Compound 339] | +++ (pIC50 ≧ 6.00) | +++ (pIC50 ≧ 6.00) | +++ (pIC50 ≧ 6.00) | +++ (pIC50 ≧ 6.00) |
| CC(=O)N1CCN(Cc2c(-c3ccc(Cl)cc3)nc3ccc(N(C)S(=O)(=O)C(C)C)cn23)CC1 [Compound 340] | +++ (pIC50 ≧ 6.00) | ++ (pIC50 5.00-5.99) | +++ (pIC50 ≧ 6.00) | +++ (pIC50 ≧ 6.00) |
